Data published in patent publication US9573930B2 (Quanticel Pharmaceuticals, Inc., priority 2014, dated 2017).

What follows are molecules tested against full-length human LSD1 (Homo sapiens (Human), UniProt O60341) (assay: In vitro enzyme inhibition assay LSD-1 (TR-FRET)). Conditions: H3K4me1-biotin peptide.
Type: biochemical
Protocol: This assay determines the ability of a test compound to inhibit LSD1 demethylase activity.
The enzymatic assay of LSD1 activity is based on Time Resolved-Fluorescence Resonance Energy Transfer (TR-FRET) detection.
The ability of the compounds disclosed herein to inhibit LSD1 activity was quantified and the respective IC50 value was determined.

Structure (SMILES) | IC50 [nM]
Cn1cc2cc(-c3c(-c4ccc(C#N)c(F)c4)nc(N4CCC(N)CC4)n(C)c3=O)ccc2n1 [Example 37, 4-[2-(4-aminopiperidyl)-1-methyl-5-(2-methyl(2H-indazol-5-yl))-6-oxohydropyrimidin-4-yl]-2-fluorobenzenecarbonitrile] | < 100
COc1ncc(-c2c(-c3ccc(C#N)c(F)c3)nc(N3CCC(N)CC3)n(C)c2=O)cc1F [Example 26, 4-[2-(4-aminopiperidyl)-5-(5-fluoro-6-methoxy(3-5,6-dihydropyridyl))-1-methyl-6-oxohydropyrimidin-4-yl]-2-fluorobenzenecarbonitrile] | < 100
Cn1c(N2CCC(N)CC2)nc(-c2ccc(C#N)c(F)c2)c(-c2ccc(N3CCCC3)nc2)c1=O [Example 60, 4-[2-(4-amino-piperidin-1-yl)-1-methyl-6-oxo-5-(6-pyrrolidin-1-yl-pyridin-3-yl)-1,6-dihydro-pyrimidin-4-yl]-2-fluoro-benzonitrile] | < 100
COc1ccc(-c2c(-c3ccc(C#N)c(F)c3)nc(N3CCC[C@@H](N)C3)n(C)c2=O)cc1F [Example 25, 4-[2-((3R)-3-aminopiperidyl)-5-(3-fluoro-4-methoxyphenyl)-1-methyl-6-oxohydropyrimidin-4-yl]-2-fluorobenzenecarbonitrile] | < 100
Cc1ccc(-c2c(-c3ccc(C#N)c(F)c3)nc(N3CCC(N)CC3)n(C)c2=O)cn1 [Example 9] | < 100
COc1ccc(-c2c(-c3ccc(C#N)c(F)c3)nc(N3CCC(N)CC3)n(CC(N)=O)c2=O)cc1 [Example 16, 2-[2-(4-amino-piperidin-1-yl)-4-(4-cyano-3-fluoro-phenyl)-5-(4-methoxy-phenyl)-6-oxo-6H-pyrimidin-1-yl]-acetamide] | < 100
CNC1CCN(c2nc(-c3ccc(C#N)c(F)c3)c(-c3ccc(OC)c(F)c3)c(=O)n2C)CC1 [Example 12, 2-fluoro-4-[5-(3-fluoro-4-methoxy-phenyl)-1-methyl-2-(4-methylamino-piperidin-1-yl)-6-oxo-1,6-dihydro-pyrimidin-4-yl]-benzonitrile] | < 100
COc1ccc(-c2c(-c3ccc(C#N)c(F)c3)nc(NC[C@H]3CCNC3)n(C)c2=O)cc1 [Example 51, 2-fluoro-4-{5-(4-methoxy-phenyl)-1-methyl-6-oxo-2-[(3S)-(pyrrolidin-3-ylmethyl)-amino]-1,6-dihydro-pyrimidin-4-yl}-benzonitrile] | < 100
COc1ccc(-c2c(-c3ccc(C#N)c(F)c3)nc(N3CCC(N)CC3)n(C)c2=O)cn1 [Example 8, 4-[2-(4-amino-piperidin-1-yl)-5-(6-methoxy-pyridin-3-yl)-1-methyl-6-oxo-1,6-dihydro-pyrimidin-4-yl]-2-fluoro-benzonitrile] | < 100
Cn1c(N2CCC(N)CC2)nc(-c2ccc(C#N)c(F)c2)c(-c2ccc(N3CCOCC3)nc2)c1=O [Example 68, 4-[2-(4-amino-piperidin-1-yl)-1-methyl-5-(6-morpholin-4-yl-pyridin-3-yl)-6-oxo-1,6-dihydro-pyrimidin-4-yl]-2-fluoro-benzonitrile] | < 100
COc1ccc(-c2c(-c3ccc(C#N)c(F)c3)nc(N(C)C3CCNCC3)n(C)c2=O)cc1 [Example 55, 2-fluoro-4-[5-(4-methoxy-phenyl)-1-methyl-2-(methyl-piperidin-4-yl-amino)-6-oxo-1,6-dihydro-pyrimidin-4-yl]-benzonitrile] | < 100
Cn1c(N2CCC(N)CC2)nc(-c2ccc(C#N)c(F)c2)c(-c2ccc3c(c2)CNC3=O)c1=O [Example 42, 4-[2-(4-amino-piperidin-1-yl)-1-methyl-6-oxo-5-(1-oxo-2,3-dihydro-1H-isoindol-5-yl)-1,6-dihydro-pyrimidin-4-yl]-2-fluoro-benzonitrile] | < 100
N#Cc1ccc(-c2cc(=O)n(CC3CC3)c(N3CCC(N)CC3)n2)cc1F [Example 109, 4-[2-(4-amino-piperidin-1-yl)-1-cyclopropylmethyl-6-oxo-1,6-dihydro-pyrimidin-4-yl]-2-fluoro-benzonitrile] | 100 to 1000
COc1ccc(-c2c(-c3ccc(C#N)c(F)c3)nc(N3CC[C@@H](N)[C@@H](F)C3)n(C)c2=O)cc1 [Example 78, 4-[2-((4R,3S)-4-amino-3-fluoro-piperidin-1-yl)-5-(4-methoxy-phenyl)-1-methyl-6-oxo-1,6-dihydro-pyrimidin-4-yl]-2-fluoro-benzonitrile] | < 100
CN(C)C1CCN(c2nc(-c3ccc(C#N)c(F)c3)c(-c3ccc4c(cnn4C)c3)c(=O)n2C)CC1 [Example 72, 4-[2-(4-dimethylamino-piperidin-1-yl)-1-methyl-5-(1-methyl-1H-indazol-5-yl)-6-oxo-1,6-dihydro-pyrimidin-4-yl]-2-fluoro-benzonitrile] | < 100
Cc1ccc(-c2c(-c3ccc(C#N)cc3)nc(N3CCC(N)CC3)n(C)c2=O)cn1 [Example 4, 4-[2-(4-amino-piperidin-1-yl)-1-methyl-5-(6-methyl-pyridin-3-yl)-6-oxo-1,6-dihydro-pyrimidin-4-yl]-benzonitrile] | < 100
CNC1CCN(c2nc(-c3ccc(C#N)c(F)c3)c(-c3ccc(OC)cc3)c(=O)n2C)CC1 [Example 11, 2-fluoro-4-[5-(4-methoxy-phenyl)-1-methyl-2-(4-methylamino-piperidin-1-yl)-6-oxo-1,6-dihydro-pyrimidin-4-yl]-benzonitrile] | < 100
Cn1c(N2CCC(N)CC2)nc(-c2ccc(F)cc2)c(-c2ccc3c(ccn3C)c2)c1=O [Example 113, 2-(4-amino-piperidin-1-yl)-6-(4-fluoro-phenyl)-3-methyl-5-(1-methyl-1H-indol-5-yl)-3H-pyrimidin-4-one] | 100 to 1000
CN(C)C1CCN(c2nc(-c3ccc(C#N)c(F)c3)c(-c3ccc4cn(C)nc4c3)c(=O)n2C)CC1 [Example 80, 4-[2-(4-dimethylamino-piperidin-1-yl)-1-methyl-5-(2-methyl-2H-indazol-6-yl)-6-oxo-1,6-dihydro-pyrimidin-4-yl]-2-fluoro-benzonitrile] | < 100
COc1ccc(-c2c(-c3ccc(C#N)c(F)c3)nc(N3CCC[C@@H](N)C3)n(C)c2=O)cc1 [Example 30, 4-[2-((3R)-3-aminopiperidyl)-5-(4-methoxyphenyl)-1-methyl-6-oxohydropyrimidin-4-yl]-2-fluorobenzenecarbonitrile] | < 100
CN(C)C1CCN(c2nc(-c3ccc(C#N)c(F)c3)c(-c3ccc4cn[nH]c4c3)c(=O)n2C)CC1 [Example 84, 4-[2-(4-dimethylamino-piperidin-1-yl)-5-(2H-indazol-6-yl)-1-methyl-6-oxo-1,6-dihydro-pyrimidin-4-yl]-2-fluoro-benzonitrile] | < 100
CNC1CCN(c2nc(-c3ccc(C#N)c(F)c3)c(-c3ccc4nn(C)cc4c3)c(=O)n2C)CC1 [Example 65, 2-fluoro-4-[1-methyl-2-(4-methylamino-piperidin-1-yl)-5-(2-methyl-2H-indazol-5-yl)-6-oxo-1,6-dihydro-pyrimidin-4-yl]-benzonitrile] | < 100

The remaining lines, values ahead:

IC50 [nM] | Structure (SMILES)
< 100 | CNC1CCN(c2nc(-c3ccc(C#N)c(F)c3)c(-c3ccc4c(cnn4C)c3)c(=O)n2C)CC1 [Example 87, 2-fluoro-4-[1-methyl-2-[4-(methylamino)piperidin-1-yl]-5-(1-methylindazol-5-yl)-6-oxopyrimidin-4-yl]benzonitrile]
< 100 | COCc1ccc(-c2c(-c3ccc(C#N)c(F)c3)nc(N3CCC(N)CC3)n(C)c2=O)cc1 [Example 107, 4-[2-(4-aminopiperidin-1-yl)-5-[4-(methoxymethyl)phenyl]-1-methyl-6-oxopyrimidin-4-yl]-2-fluorobenzonitrile]
< 100 | Cn1c(N2CCC(N)CC2)nc(-c2ccc(C#N)c(F)c2)c(-c2ccc3[nH]ncc3c2)c1=O [Example 88, 4-[2-(4-aminopiperidin-1-yl)-5-(1H-indazol-5-yl)-1-methyl-6-oxopyrimidin-4-yl]-2-fluorobenzonitrile]
< 100 | Cn1c(N2CCC(N)CC2)nc(-c2ccc(C#N)c(F)c2)cc1=O [Example 108, 4-[2-(4-aminopiperidin-1-yl)-1-methyl-6-oxopyrimidin-4-yl]-2-fluorobenzonitrile]
100 to 1000 | COc1ccc(-c2c(-c3ccc(Cl)c(F)c3)nc(N3CCC(N)CC3)n(C)c2=O)cc1 [Example 111, 2-(4-amino-piperidin-1-yl)-6-(4-chloro-3-fluoro-phenyl)-5-(4-methoxy-phenyl)-3-methyl-3H-pyrimidin-4-one]
< 100 | CCOc1ccc(-c2c(-c3ccc(C#N)c(F)c3)nc(N3CCC(N)CC3)n(C)c2=O)cn1 [Example 94, 4-[2-(4-aminopiperidin-1-yl)-5-(6-ethoxypyridin-3-yl)-1-methyl-6-oxopyrimidin-4-yl]-2-fluorobenzonitrile]
< 100 | CCOc1ncc(-c2c(-c3ccc(C#N)c(F)c3)nc(N3CCC(N)CC3)n(C)c2=O)cc1F [Example 93, 4-[2-(4-aminopiperidin-1-yl)-5-(6-ethoxy-5-fluoropyridin-3-yl)-1-methyl-6-oxopyrimidin-4-yl]-2-fluorobenzonitrile]
< 100 | Cn1c(N2CCC(N)CC2)nc(-c2ccc(C#N)c(F)c2)c(-c2ccc(N)cc2)c1=O [Example 89, 4-[5-(4-aminophenyl)-2-(4-aminopiperidin-1-yl)-1-methyl-6-oxopyrimidin-4-yl]-2-fluorobenzonitrile]
< 100 | CCOc1ccc(-c2c(-c3ccc(C#N)c(F)c3)nc(N3CCC(N)CC3)n(C)c2=O)cc1 [Example 95, 4-[2-(4-aminopiperidin-1-yl)-5-(4-ethoxyphenyl)-1-methyl-6-oxopyrimidin-4-yl]-2-fluorobenzonitrile]
< 100 | Cn1c(N2CCC(N)CC2)nc(-c2ccc(C#N)c(F)c2)c(-c2ccc(S(C)(=O)=O)cc2)c1=O [Example 105, 4-[2-(4-aminopiperidin-1-yl)-1-methyl-5-(4-methylsulfonylphenyl)-6-oxopyrimidin-4-yl]-2-fluorobenzonitrile]
